According to patent US8865122B2, “Methods and compositions for protein labelling” (Genentech, Inc., priority 2009, dated 2014):

Columns and labels:
HER2 = details: after 17-AAG, BT474 xenograft, cited from earlier work
Hsp90 = Hsp90 targeted therapy (17-AAG) treatment response monitored by microPET; type: in vivo, Beige nude XID mice
Method: Hsp90 targeted therapy and microPET imaging. Mice were distributed into two groups (n=4) according to tumor uptake and volume as determined by ^18F-4D5ThioFab one day prior to 17-AAG treatment (Gill et al (2009) Jour. Med. Chem. 52(19):5816-5825). 17-AAG was administered to the treated group at day 0, while the control group animals were left untreated. PET imaging with ^18F-4D5ThioFab was performed at day 1 (fourteen hours after the administration of the last 17-AAG dose), day 5, and day 7. Coronal slices through the tumor of control animals and animals treated with 17-AAG one day before and one day after therapy are shown in FIG. 5a. […] The renal clearance of ^18F-4D5ThioFab was predominant with significant accumulation of radioactivity in the bladder and high uptake in the renal cortex (Table 3). The hepatobiliary route also contributed to tracer excretion leading to accumulation of radioactive metabolites in the large intestine and gall bladder while the retention of radioactivity in the liver was relatively low. […]
Mice were anesthetized with 3% sevoflurane and inoculated i.v. via the tail vein catheter with 0.3-0.4 mCi of ^18F-Thio4D5Fab in isotonic solution (50-100 μL). […] Body temperature was measured by a rectal probe and maintained by warm air. […]

[1] = lipophilicity (log P) measurement; type: physicochemical; details: pH 7.4
Method: After SPE treatment, method B provided [^18F] 5 with a yield of 59±4%, a radiochemical purity of 94%, and a specific activity of 5.1±1.5 Ci/μmol (determined against an HPLC standard curve of ^19F-labeled 5) in 47±1 min (n=5). The identity of [^18F] 5 was confirmed by HPLC co-elution with ^19F-labeled standard and by LC/MS analysis of the decayed product. The lipophilicity (log P) of [^18F]5 (−2.41±0.09) was measured at pH 7.4 consistent with published methods (Rodionov et al (2007) J Am Chem Soc 129:12705-12).

[2] = water solubility observation; type: physicochemical
Description: 4 or [^18F]FPEG4N3 with methods B and C. […] Therefore, method C may be well suited for general radiochemical application facilitating the development of a consistent radiochemical process for the production of a variety of ^18F-labeled prosthetic groups. This may have strong implications for automation and may eliminate the need for dedicating a synthesis module to a specific prosthetic group, as is the case with [^18F]SFB.

Q: Which “return of HER2 to pretreatment levels” value (HER2; ^68Ga-DCHF (Smith-Jones et al)) does the source give for `C=CCNC1=C2C[C@@H](C)C[C@H](OC)[C@H](O)[C@@H](C)/C=C(\C)[C@H](OC(N)=O)[C@@H](OC)/C=C\C=C(/C)C(=O)NC(=CC1=O)C2=O` [Compound 17-AAG, 17-(allylamino)-17-demethoxygeldanamycin] here?
A: 12 days

Q: What about the “reduction in HER2 levels” value (HER2; imaged with ^68Ga-DCHF (Smith-Jones et al)) of the same compound?
A: 70%

Q: And the “reduction in tumor uptake of ^18F-4D5ThioFab” value (Hsp90; day 1 after 17-AAG (three 50 mg/kg i.p. doses), compared to control group and day −1, BT474M1 xenograft)?
A: 50%

Q: And the “rebound of HER2 expression” value (Hsp90; day 5 after 17-AAG, ^18F-4D5ThioFab tumor uptake)?
A: 100%

Q: Which logP [1] does the source give for `O=C1C=CC(=O)N1CCOCCOCCOCCOCCOCCOCc1cn(CCOCCOCCOCCOCCOCCOCCOCC[18F])nn1` [[^18F]5] here?
A: -2.41 ± 0.09

Q: Which water solubility [2] does the source give for `[N-]=[N+]=NCCOCC[18F]` [[^18F]FPEG2N3] here?
A: limited water solubility
